Test [1] relates to cardiac myocytes. Description: DNA fragmentation in cardiac myocytes subjected to hypoxia-acidosis. Type of test: cell-based, rat. The conditions noted are these: for Fragmentation of cardiac myocyte DNA by hypoxia-acidosis with MPTP inhibitor: 48 h time point, DUB 200 μM; for protection against DNA fragmentation with MPTP inhibitor: after 72 h hypoxia-acidosis. The method, then:
Cardiac Myocyte Culture and Hypoxia. Methods utilized for the isolation and culture of primary neonatal rat cardiac myocytes and exposure to hypoxia have been described previously (28;29). Experiments were performed in defined serum-free DMEM/M-199 (4:1) medium. Oxygen was continuously monitored and maintained at <10 mm Hg.
(§1) Quantitative Analysis of Apoptosis. Cells were examined for morphologic evidence of apoptosis or necrosis by staining with anti-myosin antibody and the fluorescent DNA-binding dyes Hoechst 33342 and propidium iodide (PI), exactly as previously described (26;30). Genomic DNA fragmentation analyses were also as described previously (26;30).
Antisense. Antisense oligonucleotides were complementary to bases 10-40 and 600-630 of the BNIP3 gene; sequences 5′[…] (SEQ ID NO:1) and 5′[…] (SEQ ID NO:2) respectively. Random sequence oligonucleotides contained the same bases in a scrambled sequence. FITC-tagged oligonucleotides (2 μM final of each) in DMEM were mixed with lipofectamine (0.1 μg/ml, final concentration) and incubated with cardiac myocytes at 37° C. for 8 hours before treatments. Immediately before exposing to hypoxia, fresh medium with oligonucleotides was added. Fluorescence was visualized after 24, 36, and 48 hrs of exposure to hypoxia. Fresh oligonucleotides (400 nM) were added at 24 and 36 hrs.

Test [2] has as its system cardiac myocytes. Description: Peptide protection against hypoxia-acidosis death (DNA fragmentation analyses). The conditions noted are these: peptide 10 PM (20 μg/ml); for protection against hypoxia-acidosis death: 24-48 h hypoxia with acid accumulation; for protection (quantitative DNA fragmentation analyses): n=3. It is filed as cell-based, rat. The method, then:
as §1
Peptides were added to cardiac myocyte cultures at a concentration of 10 PM (20 μg/ml) in serum-free defined medium (DMEM/high glucose/TIB) as described previously (26). Control cultures contained 20 μg/ml BSA. Cultures were exposed to 24-48 h of hypoxia with acid accumulation, also as described previously (26). The results using peptide 1 (23 aa N-BNIP3) are shown in FIG. 7 (−is control +is with peptide treatment).

On to `CCCCCCCCCCC1=C(C)C(=O)C(OC)=C(OC)C1=O` [DUB, decylubiquinone], for which, in test [1], the “Fragmentation of cardiac myocyte DNA by hypoxia-acidosis with MPTP inhibitor” value is reported as “blocked” and the “protection against DNA fragmentation with MPTP inhibitor” value was “mediated protection”.

Consider `CO[C@H](C/C=C\C=C\CC/C=C/C[C@H](C)/C=C/C(=C\C(=O)O)CC(=O)O)/C(C)=C\C=C(/C)C(=O)O` [BA, bongrekic acid], for which, in test [1], the “Fragmentation of cardiac myocyte DNA by hypoxia-acidosis with MPTP inhibitor” value is “blocked” and the “protection against DNA fragmentation with MPTP inhibitor” value is recorded as “mediated protection”.

As for “GRKKRRQRRRPPQC-----MSQSGEENLQGSWVELHFSNGNG-(C-term) (GRKKRRQRRRPPQCMSQSGEENLQGSWVELHFSNGNG; Synthetic Peptide Fragments) [Peptide 1, TAT-peptide containing N-terminal amino acids 1-23 of BNIP3]”, the “protection against hypoxia-acidosis death” value in test [2] is “strong and significant protection”. For the same molecule, the “protection (quantitative DNA fragmentation analyses)” value in test [2] (24 h hypoxia with acid accumulation) and in test [2] (48 h hypoxia with acid accumulation) was more than 50% in each case.

Take “GRKKRRQRRRPPQC----GDMEKILLDAQHESGRSSKSSHCDSP-(C-term) (GRKKRRQRRRPPQCGDMEKILLDAQHESGRSSKSSHCDSP; Synthetic Peptide Fragments) [Peptide 2, TAT-peptide containing N-terminal amino acids 24-49 of BNIP3]”: in test [2], the “protection against hypoxia-acidosis death” value is listed as “less effective”.

Values taken from patent US20040152650A1, “Preventing ischemia-induced cell damage” (priority 2002, published 2004).
